3 compounds from ChEMBL document CHEMBL4190286, “Modulating the Serotonin Receptor Spectrum of Pulicatin Natural Products” (J Nat Prod, 2017) can be followed below.

pEC50, pIC50, pKi: −log10 of the molar value. A value given as a limit tells only on which side of the number the result lay.

T4 sequence (P41595 whole entry): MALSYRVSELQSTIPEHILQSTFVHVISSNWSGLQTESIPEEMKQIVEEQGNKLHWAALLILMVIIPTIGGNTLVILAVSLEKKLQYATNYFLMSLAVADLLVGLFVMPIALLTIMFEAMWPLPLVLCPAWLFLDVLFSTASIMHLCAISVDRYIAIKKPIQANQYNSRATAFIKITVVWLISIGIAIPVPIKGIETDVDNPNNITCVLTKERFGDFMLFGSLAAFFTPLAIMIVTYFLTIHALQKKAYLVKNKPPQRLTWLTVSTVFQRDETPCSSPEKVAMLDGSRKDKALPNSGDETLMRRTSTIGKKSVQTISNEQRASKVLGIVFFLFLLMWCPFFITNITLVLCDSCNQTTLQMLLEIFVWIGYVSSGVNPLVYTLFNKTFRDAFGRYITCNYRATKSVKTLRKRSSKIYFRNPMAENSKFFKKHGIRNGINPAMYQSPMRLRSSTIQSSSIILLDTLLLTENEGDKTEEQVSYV
5-hydroxytryptamine receptor 7, sequence (P34969 whole entry): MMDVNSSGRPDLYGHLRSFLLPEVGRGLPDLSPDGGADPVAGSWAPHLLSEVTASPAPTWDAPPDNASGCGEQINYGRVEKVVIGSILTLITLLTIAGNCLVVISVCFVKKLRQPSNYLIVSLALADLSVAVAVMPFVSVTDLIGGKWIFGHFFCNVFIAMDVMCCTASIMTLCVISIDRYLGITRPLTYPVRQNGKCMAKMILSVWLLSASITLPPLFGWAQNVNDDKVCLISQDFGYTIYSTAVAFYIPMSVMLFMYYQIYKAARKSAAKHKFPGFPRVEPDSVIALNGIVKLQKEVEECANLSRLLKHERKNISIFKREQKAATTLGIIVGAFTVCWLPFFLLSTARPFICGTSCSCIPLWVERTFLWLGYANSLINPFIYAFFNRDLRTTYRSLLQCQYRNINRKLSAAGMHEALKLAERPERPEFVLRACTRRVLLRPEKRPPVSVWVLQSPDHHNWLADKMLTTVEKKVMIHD
5-hydroxytryptamine receptor 4, sequence (Q13639 whole entry): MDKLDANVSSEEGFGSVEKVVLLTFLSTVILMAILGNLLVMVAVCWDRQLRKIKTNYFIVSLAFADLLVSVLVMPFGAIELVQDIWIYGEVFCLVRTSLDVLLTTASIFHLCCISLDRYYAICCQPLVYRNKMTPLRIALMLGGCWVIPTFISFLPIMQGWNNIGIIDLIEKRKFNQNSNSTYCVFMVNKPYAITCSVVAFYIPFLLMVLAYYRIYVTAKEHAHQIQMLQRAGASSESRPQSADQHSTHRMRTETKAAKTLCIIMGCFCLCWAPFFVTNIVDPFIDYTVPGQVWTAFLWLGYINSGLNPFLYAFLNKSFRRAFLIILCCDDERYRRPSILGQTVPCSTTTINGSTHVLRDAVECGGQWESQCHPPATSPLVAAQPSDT
5-hydroxytryptamine receptor 6, sequence (P50406 whole entry): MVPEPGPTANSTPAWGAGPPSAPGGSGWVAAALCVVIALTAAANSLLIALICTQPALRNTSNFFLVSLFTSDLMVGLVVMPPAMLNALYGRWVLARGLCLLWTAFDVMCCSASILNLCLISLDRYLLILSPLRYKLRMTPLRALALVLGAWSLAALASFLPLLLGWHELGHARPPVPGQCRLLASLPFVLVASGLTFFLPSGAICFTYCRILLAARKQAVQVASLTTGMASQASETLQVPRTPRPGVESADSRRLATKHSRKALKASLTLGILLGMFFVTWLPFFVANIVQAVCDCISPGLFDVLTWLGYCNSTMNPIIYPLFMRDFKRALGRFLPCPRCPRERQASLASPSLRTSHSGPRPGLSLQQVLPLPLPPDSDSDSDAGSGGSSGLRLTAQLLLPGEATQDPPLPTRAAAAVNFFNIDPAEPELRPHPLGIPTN

In one assay the target is T1, 5-hydroxytryptamine receptor 1B (Homo sapiens, UniProt P28222). Description: Agonist activity at 5-HT1B receptor (unknown origin) at 2 uM by Tango assay. It is filed as functional.
T1 sequence (P28222 whole entry): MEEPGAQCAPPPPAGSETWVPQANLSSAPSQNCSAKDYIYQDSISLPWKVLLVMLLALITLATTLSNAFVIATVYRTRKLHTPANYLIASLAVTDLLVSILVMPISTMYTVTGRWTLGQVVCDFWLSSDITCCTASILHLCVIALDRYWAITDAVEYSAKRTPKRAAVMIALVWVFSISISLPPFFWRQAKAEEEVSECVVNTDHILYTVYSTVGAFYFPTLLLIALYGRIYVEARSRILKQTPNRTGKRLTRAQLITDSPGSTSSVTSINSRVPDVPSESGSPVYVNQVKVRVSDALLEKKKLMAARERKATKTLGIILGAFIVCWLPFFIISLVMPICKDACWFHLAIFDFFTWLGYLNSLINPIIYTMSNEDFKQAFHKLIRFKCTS
The term inhibition denotes the relative decrease from the control value, in per cent. Low values mean a response near the control, high ones a response far below the control. As to `CCCCCCOc1ccc(C2=N[C@@H](CO)[C@H](C)S2)cc1` (relative stereo), the inhibition amounted to 100%.
Same read-out and setting: the same measure for `CCCCOc1ccc(C2=N[C@@H](CO)[C@H](C)S2)cc1` (relative stereo): 100%.

The next assay concerns the target T1, 5-hydroxytryptamine receptor 1B. Description: Antagonist activity at 5-HT1B receptor (unknown origin) by Tango assay. Type of assay: functional.
What is called pIC50 is the IC50 on a negative log10 scale, so that one unit is a factor of ten. `CCCCCCOc1ccc(C2=N[C@@H](CO)[C@H](C)S2)cc1` (relative stereo) gave a pIC50 of 5.72.
Same read-out and setting: for `CCCCOc1ccc(C2=N[C@@H](CO)[C@H](C)S2)cc1` (relative stereo) the value was 5.68.

The next assay addresses 5-hydroxytryptamine receptor 4 (Homo sapiens, UniProt Q13639). Description: Antagonist activity at 5-HT4 receptor (unknown origin) by Tango assay. Type of assay: functional.
Consider `CCCCCCOc1ccc(C2=N[C@@H](CO)[C@H](C)S2)cc1` (relative stereo), for which the pIC50 is under 5.00.
Still for that read-out and setting: for `CCCCOc1ccc(C2=N[C@@H](CO)[C@H](C)S2)cc1` (relative stereo) the value was under 5.00.

The target in a further assay is T2, 5-hydroxytryptamine receptor 1D (Homo sapiens, UniProt P28221). Description: Displacement of [3H]5-CT from human 5-HT1D receptor expressed in HEKT cells after 90 mins by microbeta scintillation counting analysis. It is filed as cell-based. (In a radioligand displacement assay an active substance lowers the binding of a labelled ligand.)
T2 sequence (P28221 whole entry): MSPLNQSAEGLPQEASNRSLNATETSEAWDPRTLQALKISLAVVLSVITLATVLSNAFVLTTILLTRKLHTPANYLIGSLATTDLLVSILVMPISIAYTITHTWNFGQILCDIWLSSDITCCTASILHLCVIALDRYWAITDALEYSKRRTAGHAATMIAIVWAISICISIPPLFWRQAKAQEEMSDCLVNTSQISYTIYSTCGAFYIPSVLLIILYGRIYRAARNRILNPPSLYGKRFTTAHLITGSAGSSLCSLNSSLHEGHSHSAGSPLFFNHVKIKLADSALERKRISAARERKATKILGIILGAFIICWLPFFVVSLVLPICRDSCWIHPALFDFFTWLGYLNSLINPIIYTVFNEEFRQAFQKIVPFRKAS
The term pKi denotes −log10 of the Ki, conventionally taken in molar units. Low readings indicate a large Ki, high ones a small Ki. With `COC(=O)[C@H](Cc1cnc[nH]1)NC(=O)[C@H]1N=C(c2ccccc2O)S[C@@H]1C`, the negative logarithm of the Ki (pKi) is 5.48.
In turn, `CCCCCCOc1ccc(C2=N[C@@H](CO)[C@H](C)S2)cc1` (relative stereo) gave a pKi of under 5.00.
On the same count and under the same terms, for `CCCCOc1ccc(C2=N[C@@H](CO)[C@H](C)S2)cc1` (relative stereo) the value was 5.01.

In another assay the target is 5-hydroxytryptamine receptor 1E (Homo sapiens, UniProt P28566). Description: Displacement of [3H]5-HT from human 5-HT1E receptor expressed in HEK cells after 90 mins by microbeta scintillation counting analysis. It is filed as cell-based.
5-hydroxytryptamine receptor 1E, sequence (P28566 whole entry): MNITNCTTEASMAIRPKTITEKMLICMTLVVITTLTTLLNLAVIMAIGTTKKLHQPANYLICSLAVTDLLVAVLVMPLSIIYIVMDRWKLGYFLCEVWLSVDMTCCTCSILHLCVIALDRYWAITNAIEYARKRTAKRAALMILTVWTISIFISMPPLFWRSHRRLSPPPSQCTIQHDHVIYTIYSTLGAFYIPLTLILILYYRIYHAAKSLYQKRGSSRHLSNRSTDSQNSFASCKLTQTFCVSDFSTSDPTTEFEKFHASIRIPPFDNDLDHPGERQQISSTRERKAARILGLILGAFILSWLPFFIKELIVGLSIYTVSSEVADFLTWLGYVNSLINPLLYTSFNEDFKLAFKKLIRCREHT
`COC(=O)[C@H](Cc1cnc[nH]1)NC(=O)[C@H]1N=C(c2ccccc2O)S[C@@H]1C` showed a pKi of 5.85.
The same measure, in the same setting: the same measure for `CCCCCCOc1ccc(C2=N[C@@H](CO)[C@H](C)S2)cc1` (relative stereo): under 5.00; for `CCCCOc1ccc(C2=N[C@@H](CO)[C@H](C)S2)cc1` (relative stereo): under 5.00.

Another assay has as its target 5-hydroxytryptamine receptor 6 (Homo sapiens, UniProt P50406). Description: Displacement of [3H]-LSD from human 5-HT6 receptor expressed in HEK cells after 90 mins by microbeta scintillation counting analysis. Type of assay: cell-based.
`CCCCCCOc1ccc(C2=N[C@@H](CO)[C@H](C)S2)cc1` (relative stereo): the pKi was under 5.00.
On to `CCCCOc1ccc(C2=N[C@@H](CO)[C@H](C)S2)cc1` (relative stereo), for which the pKi is under 5.00.

The next assay concerns the target 5-hydroxytryptamine receptor 7 (Homo sapiens, UniProt P34969). Description: Displacement of [3H]-LSD from human 5-HT7A receptor expressed in HEK cells after 90 mins by microbeta scintillation counting analysis. It is filed as cell-based.
`CCCCCCOc1ccc(C2=N[C@@H](CO)[C@H](C)S2)cc1` (relative stereo) had a negative-log Ki (pKi) of under 5.00.
The compound `CCCCOc1ccc(C2=N[C@@H](CO)[C@H](C)S2)cc1` (relative stereo) had a pKi of under 5.00.

The next assay addresses T3, 5-hydroxytryptamine receptor 3A (Homo sapiens, UniProt P46098).
T3 sequence (P46098 whole entry): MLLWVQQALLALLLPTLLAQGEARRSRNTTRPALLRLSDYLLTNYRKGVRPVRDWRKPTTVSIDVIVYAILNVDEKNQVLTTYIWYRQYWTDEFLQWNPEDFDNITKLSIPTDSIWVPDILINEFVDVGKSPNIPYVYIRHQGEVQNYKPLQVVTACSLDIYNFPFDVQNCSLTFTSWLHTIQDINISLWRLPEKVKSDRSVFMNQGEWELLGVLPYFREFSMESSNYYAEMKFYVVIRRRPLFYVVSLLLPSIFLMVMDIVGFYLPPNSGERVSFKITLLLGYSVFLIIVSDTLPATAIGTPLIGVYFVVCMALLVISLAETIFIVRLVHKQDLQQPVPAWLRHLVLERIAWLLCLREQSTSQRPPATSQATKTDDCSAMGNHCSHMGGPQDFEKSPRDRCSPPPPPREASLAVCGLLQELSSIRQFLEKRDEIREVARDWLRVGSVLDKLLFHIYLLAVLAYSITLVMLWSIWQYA
Description: Displacement of [3H]-GR65630 from human 5-HT3 receptor expressed in HEKT cells after 90 mins by microbeta scintillation counting analysis. Type of assay: cell-based.
`CCCCCCOc1ccc(C2=N[C@@H](CO)[C@H](C)S2)cc1` (relative stereo) showed a negative-log Ki (pKi) of under 5.00.
On to `CCCCOc1ccc(C2=N[C@@H](CO)[C@H](C)S2)cc1` (relative stereo), for which the pKi was under 5.00.

Another assay concerns the target T4, 5-hydroxytryptamine receptor 2B (Homo sapiens, UniProt P41595). Description: Antagonist activity at 5-HT2B receptor (unknown origin) by calcium release assay. It is filed as functional.
As to `COC(=O)[C@H](Cc1cnc[nH]1)NC(=O)[C@H]1N=C(c2ccccc2O)S[C@@H]1C`, the pIC50 was 5.00.
Regarding `CCCCCCOc1ccc(C2=N[C@@H](CO)[C@H](C)S2)cc1` (relative stereo), the pIC50 was under 5.00.
For `CCCCOc1ccc(C2=N[C@@H](CO)[C@H](C)S2)cc1` (relative stereo), the pIC50 is under 5.00.

For a further assay, the target named is T5, 5-hydroxytryptamine receptor 1A (Homo sapiens, UniProt P08908).
T5 sequence (P08908 whole entry): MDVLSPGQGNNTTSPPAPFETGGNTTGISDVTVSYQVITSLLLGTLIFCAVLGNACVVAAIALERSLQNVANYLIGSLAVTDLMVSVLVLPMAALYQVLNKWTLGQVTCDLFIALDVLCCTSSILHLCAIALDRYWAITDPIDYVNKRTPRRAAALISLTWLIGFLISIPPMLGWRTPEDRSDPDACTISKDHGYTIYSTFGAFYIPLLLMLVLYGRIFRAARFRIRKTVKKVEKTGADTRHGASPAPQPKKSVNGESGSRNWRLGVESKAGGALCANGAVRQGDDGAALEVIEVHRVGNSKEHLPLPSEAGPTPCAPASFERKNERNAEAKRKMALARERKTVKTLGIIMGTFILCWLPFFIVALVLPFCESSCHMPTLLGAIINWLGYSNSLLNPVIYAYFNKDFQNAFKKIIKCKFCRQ
Description: Antagonist activity at 5-HT1A receptor (unknown origin) by Tango assay. Type of assay: functional.
Compound `COC(=O)[C@H](Cc1cnc[nH]1)NC(=O)[C@H]1N=C(c2ccccc2O)S[C@@H]1C` showed a pIC50 of under 5.00.
The same measure, in the same setting: for `CCCCCCOc1ccc(C2=N[C@@H](CO)[C@H](C)S2)cc1` (relative stereo) the value was under 5.00.
`CCCCOc1ccc(C2=N[C@@H](CO)[C@H](C)S2)cc1` (relative stereo) gave a pIC50 of under 5.00.

Another assay deals with T1, 5-hydroxytryptamine receptor 1B. Description: Displacement of [3H]5-CT from human 5-HT1B receptor expressed in HEK cells after 90 mins by microbeta scintillation counting analysis. Type of assay: cell-based.
`CCCCCCOc1ccc(C2=N[C@@H](CO)[C@H](C)S2)cc1` (relative stereo): the negative logarithm of the Ki (pKi) was under 5.00.
`CCCCOc1ccc(C2=N[C@@H](CO)[C@H](C)S2)cc1` (relative stereo) gave a pKi of under 5.00.

For the next assay the target is unchanged. In words: Partial agonist activity at 5-HT1B receptor (unknown origin) by Tango assay. It is filed as functional.
As usually defined, the pEC50 is the EC50 on a negative log10 scale, so that one unit is a factor of ten. Read a high pEC50 as a small EC50. With `CCCCCCOc1ccc(C2=N[C@@H](CO)[C@H](C)S2)cc1` (relative stereo), the pEC50 was 6.74.
Same read-out and setting: the same measure for `CCCCOc1ccc(C2=N[C@@H](CO)[C@H](C)S2)cc1` (relative stereo): 7.54.

For another assay, the target named is T6, 5-hydroxytryptamine receptor 2C (Homo sapiens, UniProt P28335).
T6 sequence (P28335 whole entry): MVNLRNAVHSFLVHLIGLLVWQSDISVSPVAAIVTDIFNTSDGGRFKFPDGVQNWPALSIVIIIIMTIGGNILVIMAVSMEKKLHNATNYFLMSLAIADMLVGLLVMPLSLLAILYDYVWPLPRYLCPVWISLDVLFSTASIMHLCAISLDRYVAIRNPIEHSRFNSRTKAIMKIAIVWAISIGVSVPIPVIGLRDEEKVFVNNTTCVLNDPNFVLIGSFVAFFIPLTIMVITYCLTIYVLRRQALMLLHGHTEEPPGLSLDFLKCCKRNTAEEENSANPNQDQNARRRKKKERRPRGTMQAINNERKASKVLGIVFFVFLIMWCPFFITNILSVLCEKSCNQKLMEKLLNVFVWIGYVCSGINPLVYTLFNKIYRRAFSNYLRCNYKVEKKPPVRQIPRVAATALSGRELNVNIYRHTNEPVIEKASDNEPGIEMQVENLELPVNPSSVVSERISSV
Description: Displacement of [3H]-Mesulergine from human 5-HT2C receptor expressed in HEKT cells after 90 mins by microbeta scintillation counting analysis. Type of assay: cell-based.
`COC(=O)[C@H](Cc1cnc[nH]1)NC(=O)[C@H]1N=C(c2ccccc2O)S[C@@H]1C` showed a pKi of 6.09.
The same measure, in the same setting: the same measure for `CCCCCCOc1ccc(C2=N[C@@H](CO)[C@H](C)S2)cc1` (relative stereo): 5.77; for `CCCCOc1ccc(C2=N[C@@H](CO)[C@H](C)S2)cc1` (relative stereo): 5.49.

The target in a further assay is 5-hydroxytryptamine receptor 5A (Homo sapiens, UniProt P47898). In words: Displacement of [3H]-LSD from human 5-HT5A receptor expressed in Flp-In CHO cells after 90 mins by microbeta scintillation counting analysis. Type of assay: cell-based.
5-hydroxytryptamine receptor 5A, sequence (P47898 whole entry): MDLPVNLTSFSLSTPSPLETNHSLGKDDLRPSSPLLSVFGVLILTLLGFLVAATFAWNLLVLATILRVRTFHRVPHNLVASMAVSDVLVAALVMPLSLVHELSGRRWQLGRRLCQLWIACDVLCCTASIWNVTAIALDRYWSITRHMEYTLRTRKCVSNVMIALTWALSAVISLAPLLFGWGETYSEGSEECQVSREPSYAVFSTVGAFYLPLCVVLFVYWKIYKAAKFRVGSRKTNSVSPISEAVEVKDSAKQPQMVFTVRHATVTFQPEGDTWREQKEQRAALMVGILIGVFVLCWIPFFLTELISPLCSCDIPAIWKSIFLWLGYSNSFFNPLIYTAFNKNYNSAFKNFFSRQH
As to `CCCCCCOc1ccc(C2=N[C@@H](CO)[C@H](C)S2)cc1` (relative stereo), the pKi is under 5.00.
Still for that read-out and setting: for `CCCCOc1ccc(C2=N[C@@H](CO)[C@H](C)S2)cc1` (relative stereo) the value was under 5.00.

A further assay addresses T6, 5-hydroxytryptamine receptor 2C. In words: Antagonist activity at 5-HT2C receptor (unknown origin) by calcium release assay. It is filed as functional.
Take `COC(=O)[C@H](Cc1cnc[nH]1)NC(=O)[C@H]1N=C(c2ccccc2O)S[C@@H]1C`: the pIC50 was under 5.00.

For another assay, the target named is T4, 5-hydroxytryptamine receptor 2B. Description: Displacement of [3H]-LSD from human 5-HT2B receptor expressed in HEK cells after 90 mins by microbeta scintillation counting analysis. It is filed as cell-based.
`COC(=O)[C@H](Cc1cnc[nH]1)NC(=O)[C@H]1N=C(c2ccccc2O)S[C@@H]1C` gave a pKi of 6.00.
`CCCCCCOc1ccc(C2=N[C@@H](CO)[C@H](C)S2)cc1` (relative stereo) had a pKi of 5.37.
Still for that read-out and setting: the same measure for `CCCCOc1ccc(C2=N[C@@H](CO)[C@H](C)S2)cc1` (relative stereo): 5.12.

In another assay the target is 5-hydroxytryptamine receptor 2A (Homo sapiens, UniProt P28223). Description: Displacement of [3H]Ketanserin from 5-HT2A (unknown origin) receptor after 90 mins by microbeta scintillation counting analysis.
5-hydroxytryptamine receptor 2A, sequence (P28223 whole entry): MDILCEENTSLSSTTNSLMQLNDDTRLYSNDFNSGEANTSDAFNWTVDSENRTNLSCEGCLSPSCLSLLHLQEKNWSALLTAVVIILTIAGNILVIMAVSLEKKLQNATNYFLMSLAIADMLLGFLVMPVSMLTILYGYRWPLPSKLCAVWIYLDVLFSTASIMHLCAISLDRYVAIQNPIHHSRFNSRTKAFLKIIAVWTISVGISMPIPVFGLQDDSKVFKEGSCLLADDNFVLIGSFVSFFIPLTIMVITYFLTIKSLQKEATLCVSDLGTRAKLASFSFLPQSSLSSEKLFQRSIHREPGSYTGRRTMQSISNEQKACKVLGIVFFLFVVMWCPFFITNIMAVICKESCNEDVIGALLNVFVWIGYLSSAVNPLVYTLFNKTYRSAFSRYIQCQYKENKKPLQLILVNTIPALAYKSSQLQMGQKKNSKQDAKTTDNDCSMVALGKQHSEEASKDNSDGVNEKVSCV
For the compound `COC(=O)[C@H](Cc1cnc[nH]1)NC(=O)[C@H]1N=C(c2ccccc2O)S[C@@H]1C`, the pKi was 6.51.
Same read-out and setting: for `CCCCCCOc1ccc(C2=N[C@@H](CO)[C@H](C)S2)cc1` (relative stereo) the value was 5.41.
Same read-out and setting: the same measure for `CCCCOc1ccc(C2=N[C@@H](CO)[C@H](C)S2)cc1` (relative stereo): 5.66.

The target of the next assay is T2, 5-hydroxytryptamine receptor 1D. In words: Antagonist activity at 5-HT1D receptor (unknown origin) by Tango assay. It is filed as functional.
`CCCCCCOc1ccc(C2=N[C@@H](CO)[C@H](C)S2)cc1` (relative stereo) showed a pIC50 of under 5.00.
`CCCCOc1ccc(C2=N[C@@H](CO)[C@H](C)S2)cc1` (relative stereo) had a negative-log IC50 (pIC50) of under 5.00.
